Measured values from patent publication US11766467B2, “Methods of treating wounds using cathepsin K inhibitors” (University of Wyoming, priority 2017, dated 2023).

Assays:
[1] = test system: excisional skin wounds in genetically diabetic db/db mice; test: excisional skin wound healing in genetically diabetic db/db mice, topical inhibitor; type: in vivo; conditions: treated along the circumference of the wound
Experimental: FIG. 5 illustrates the effect of a topically delivered pharmacological inhibitor of cathepsin K on wound healing in genetically diabetic mice. Excisional skin wounds were created in genetically diabetic db/db mice and the wounds were treated along the circumference of the wounds with cathepsin K inhibitor II or vehicle. Wound healing was evaluated by measuring the wound closure rate and histomorphometric analysis. […] In contrast, wounds in the vehicle treated group remain unhealed during this time period. Heterozygous (db/db^+/−) mice were used as controls in these studies.

[2] = test system: full-thickness wounds in diabetic pigs; test: porcine diabetic (streptozotocin) wound healing model, full-thickness wounds, intradermal injections; type: in vivo; conditions: for wound closure: both the higher (300 ng/mm^2) and lower (30 ng/mm^2) doses; for wound closure / wound healing (in words): diabetic pigs
Experimental: Odanacatib is a potent and selective inhibitor of cathepsin K and can be administered to promote wound healing in diabetic pigs. Pigs (3-4 months old) were rendered diabetic with intravenous injection of streptozotocin (75 mg/Kg). Four weeks following streptozotocin injections 6-10 full-thickness (one-inch square, ˜[…] thickness) wounds were created in two columns on each side of the dorsal thoracolumbar midline. […] Wounds were photographed prior to treatment and analyzed for wound closure rates.
Data are expressed as mean±SEM (n=8 for vehicle and 6 each for odanacatib treatment). […] Because some values are missing as we had euthanized one pig from each group on day 14 for molecular analysis, the data were analyzed by fitting a mixed model, rather than by repeated measures ANOVA. […]

[3] = test system: cultured human fibroblasts; test: in vitro monolayer wound-healing assay (cell migration under high glucose); type: cell-based; conditions: high glucose 25 mM, 100 ng/ml inhibitor, 5 μg/ml hydroxyurea, 72 h after wounding
Experimental: Referring now to FIGS. 1A-1B, the in vitro monolayer wound-healing assay mimics cell migration during wound healing. An in vitro monolayer wound-healing assay in cultured human fibroblasts was used to test whether pharmacological inhibition of cathepsin K affected cell migration under high-glucose (25 mM) conditions. Mannitol was included to control for osmotic pressure and hydroxyurea to eliminate the potential effects of cell proliferation.
Referring again to FIGS. 1A-1B, inhibition of cathepsin reverses the inhibitory effect of high glucose (HG) on cell migration in a monolayer wound-healing assay. Confluent human fibroblasts were serum starved and subjected to a media containing low (5 mM, LG) or high (25 mM, HG) glucose. The cell monolayer was wounded with a linear scratch using a sterile pipette tip and treated with 100 ng/ml of cathepsin K inhibitor-II in the presence of 5 μg/ml hydroxyurea. At 0 time (upper left panel) and 72 h (lower left panel) after wounding, the cells were photographed using an inverted microscope equipped with a digital camera. Scale bar=600 μm. FIG. 1A. Representative phase-contrast images for each treatment group. FIG. 1B. Bar graph represents the percentage wound closure 72 h after wounding as measured using the NIH Image J software and represented as mean±SEM, n=6, *p<0.01 compared to LG; **p<0.05 compared to LG.

SMILES: CC(C)C[C@H](NC(=O)OCc1ccccc1)C(=O)NNC(=O)NNC(=O)[C@H](CC(C)C)NC(=O)[C@H](Cc1ccccc1)NC(=O)OC(C)(C)C [CatKI-II, 1-(N-Benzyloxycarbonyl-leucyl)-5-(N-Boc-phenylalanyl-leucyl) carbohydrazide]
- wound resolution ([1]; day 12): significant resolution of wound
- wound resolution ([1]; day 15): almost complete resolution
- Tukey's multiple comparisons test, Summary ([2]; Table 1, D 3, 30 vs. 300 ng/mm^2): ns
- Tukey's multiple comparisons test, Summary ([2]; Table 1, D 3, Vehicle vs. 300 ng/mm^2): ns
- Tukey's multiple comparisons test, Summary ([2]; Table 1, D 7, 30 vs. 300 ng/mm^2): ns
- Tukey's multiple comparisons test, Summary ([2]; Table 1, D 7, Vehicle vs. 300 ng/mm^2): ns
- Tukey's multiple comparisons test, Summary ([2]; Table 1, D 7, Vehicle vs. 30 μg/mm^2): ns
- Tukey's multiple comparisons test, Summary ([2]; Table 1, D 14, Vehicle vs. 300 ng/mm^2): ns
- Tukey's multiple comparisons test, Summary ([2]; Table 1, D 21, Vehicle vs. 300 ng/mm^2): ns
- Tukey's multiple comparisons test, Summary ([2]; Table 2, D 3, 30 vs. 300 ng/mm^2): ns
- Tukey's multiple comparisons test, Summary ([2]; Table 2, D 3, Vehicle vs. 300 ng/mm^2): ns
- Tukey's multiple comparisons test, Summary ([2]; Table 2, D 7, 30 vs. 300 ng/mm^2): ns
- Tukey's multiple comparisons test, Summary ([2]; Table 2, D 7, Vehicle vs. 300 ng/mm^2): ns
- Tukey's multiple comparisons test, Summary ([2]; Table 2, D 7, Vehicle vs. 30 μg/mm^2): ns
- Tukey's multiple comparisons test, Summary ([2]; Table 2, D 14, Vehicle vs. 300 ng/mm^2): ns
- Tukey's multiple comparisons test, Summary ([2]; Table 2, D 21, Vehicle vs. 300 ng/mm^2): ns
- wound closure ([2]; day 21 post-wounding): ~93%
- wound closure / wound healing (in words) [2]: facilitate wound closure
- wound closure / wound healing (in words) ([2]; listed as Cathepsin K inhibitor II): promotes wound healing
- wound area: improvement in wound healing ([2]; lower dose 30 ng/mm^2/wound, day 21 post-wounding): statistically significant improvement in wound healing compared to both vehicle and the higher dose
- fibroblast migration / monolayer wound closure [3]: increased migration beyond that observed in the cells treated with a low-glucose media

SMILES: CC(C)(F)C[C@H](N[C@@H](c1ccc(-c2ccc(S(C)(=O)=O)cc2)cc1)C(F)(F)F)C(=O)NC1(C#N)CC1 [odanacatib]
- wound closure ([2]; day 21 post-wounding): ~93%
